One compound from patent US6436963B1 (priority 1998, dated 2002) can be followed below.

One assay has as its system Septoria tritici. To be noted: wheat (cultivar Monon), sprayed to run off at 100 ppm, inoculated after 24 hours.
The next assay has as its system Erysiphe graminis. The assay can be described thus: Powdery Mildew of Wheat (ERYSGT), protectant spray test on wheat seedlings. It counts as in vivo. The note with it: wheat (cultivar Monon), sprayed to run off at 100 ppm, inoculated after 24 hours.
The next assay deals with Puccinia recondita. The assay can be described thus: Brown Rust (PUCCRT), protectant spray test on wheat seedlings. In kind it is in vivo. To be noted: wheat (cultivar Monon), sprayed to run off at 100 ppm, inoculated after 24 hours.
A further assay deals with Phytophthora infestans. It counts as in vivo. The note with it: tomatoes (cultivar Rutgers), sprayed to run off at 100 ppm, inoculated after 24 hours.

With `CNC(=O)C(=NOC)c1ccccc1COc1ncc(C(O)c2ccc(F)cc2)cc1C` (racemic) [Example 14], the “SEPTTR control of plant disease” value in the assay with Septoria tritici was “++ (++ = 75-100% control of plant disease)”. Further, the “ERYSGT control of plant disease” value with Erysiphe graminis is listed as “++ (++ = 75-100% control of plant disease)”. The “PUCCRT control of plant disease” value with Puccinia recondita was “++ (++ = 75-100% control of plant disease)”. The “PHYTIN control of plant disease” value in the assay on Phytophthora infestans is listed as “++ (++ = 75-100% control of plant disease)”.
